In brackets after ≈: the same amount, converted by molar mass.
Experiments:
[1] = test system: HFD-induced obesity in mice; assay: Body weight and visceral fat in HFD-induced obesity mice, 6 weeks; assay type: in vivo, ICR mice
Protocol: Male healthy 4-week-old ICR mice (about 30-32 g) were purchased from Orient (Gyeonggi-do, Korea). Each mouse was kept at room temperature (22±3° C.) and humidity (55±5%) with a 12-h light/dark cycle. […] The mice were allowed free access to laboratory pellet chow and water ad libitum. After adaptation (1 week), all experimental mice except normal mice (n=8) were fed with 60% high-fat diet (HFD; Diet 12492, Research Diets, Inc., 105 New Brunswick, N.J., USA) for 5 days to adapt to a feed. Thereafter, ICR mice (n=32) fed 60% HFD were randomly divided into four groups (HFD control group, orlistat group, and two PCM treatment groups (50 and 200 mg/kg/day))(in each group n=8). The normal group is supplied with a normal feed and the rest of the groups are supplied with 60% HFD until the end of experiment. The normal and HFD control groups were given water using a stomach tube, while the drug treatment groups were orally given Orlistat or PCM daily using a stomach tube for 6 weeks. After administration for 6 weeks, each mouse was sacrificed after fasting for 12 hours. The blood was immediately centrifuged for 10 minutes at 4° C.

[2] = test system: HFD-induced obesity in mice; assay: Serum lipid profiles in HFD-induced obesity mice, 6 weeks; assay type: in vivo, ICR mice; details: Orlistat orally daily for 6 weeks
Protocol: Male healthy 4-week-old ICR mice (about 30-32 g) were purchased from Orient (Gyeonggi-do, Korea). Each mouse was kept at room temperature (22±3° C.) and humidity (55±5%) with a 12-h light/dark cycle. The experiments were approved by the Ethics Committee of Animal Experimentation of the University of Daegu Haany. The mice were allowed free access to laboratory pellet chow and water ad libitum. After adaptation (1 week), all experimental mice except normal mice (n=8) were fed with 60% high-fat diet (HFD; Diet 12492, Research Diets, Inc., 105 New Brunswick, N.J., USA) for 5 days to adapt to a feed. Thereafter, ICR mice (n=32) fed 60% HFD were randomly divided into four groups (HFD control group, orlistat group, and two PCM treatment groups (50 and 200 mg/kg/day))(in each group n=8). The normal group is supplied with a normal feed and the rest of the groups are supplied with 60% HFD until the end of experiment. The normal and HFD control groups were given water using a stomach tube, while the drug treatment groups were orally given Orlistat or PCM daily using a stomach tube for 6 weeks. After administration for 6 weeks, each mouse was sacrificed after fasting for 12 hours. The blood was immediately centrifuged for 10 minutes at 4° C. Serum triglyceride and total cholesterol were conducted spectrophotometrically using commercially available kits (Wako Pure Chemical Industries, Ltd., Osaka, Japan). HDL-cholesterol is measured using a commercial kit from Asan Pharm Co., Ltd. (Hwaseong-si, Korea, Cat AM203). LDL-cholesterol levels are calculated though TG, TC and HDL levels, and the following formula.

pancreatic lipase enzyme = biological target: T1, pancreatic lipase enzyme (Homo sapiens, UniProt P16233); details: background statement; cited from earlier work
T1 sequence (P16233 17-465): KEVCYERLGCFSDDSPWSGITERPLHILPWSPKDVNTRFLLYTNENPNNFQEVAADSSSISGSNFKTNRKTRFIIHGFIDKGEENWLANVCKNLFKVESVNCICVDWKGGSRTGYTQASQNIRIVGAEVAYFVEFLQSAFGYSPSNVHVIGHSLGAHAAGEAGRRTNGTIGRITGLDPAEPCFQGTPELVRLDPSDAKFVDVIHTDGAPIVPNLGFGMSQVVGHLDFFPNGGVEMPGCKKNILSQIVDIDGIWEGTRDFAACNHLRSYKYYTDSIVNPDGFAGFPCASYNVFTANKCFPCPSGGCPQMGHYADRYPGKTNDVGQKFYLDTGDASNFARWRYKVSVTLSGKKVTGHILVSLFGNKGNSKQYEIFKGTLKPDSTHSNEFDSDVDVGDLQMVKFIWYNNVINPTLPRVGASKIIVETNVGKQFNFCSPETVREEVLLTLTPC

[3] = biological target: T2, porcine pancreatic lipase (Sus scrofa, UniProt P00591); assay: Pancreatic lipase inhibition (p-NPB hydrolysis); assay type: biochemical; details: PCM 100-1000 μg/mL, orlistat 0.1-1 μg/mL, n=4
T2 construct: purchased Sigma-Aldrich Co. Type 2 (catalogue number not given)
T2 sequence (P00591 1-450): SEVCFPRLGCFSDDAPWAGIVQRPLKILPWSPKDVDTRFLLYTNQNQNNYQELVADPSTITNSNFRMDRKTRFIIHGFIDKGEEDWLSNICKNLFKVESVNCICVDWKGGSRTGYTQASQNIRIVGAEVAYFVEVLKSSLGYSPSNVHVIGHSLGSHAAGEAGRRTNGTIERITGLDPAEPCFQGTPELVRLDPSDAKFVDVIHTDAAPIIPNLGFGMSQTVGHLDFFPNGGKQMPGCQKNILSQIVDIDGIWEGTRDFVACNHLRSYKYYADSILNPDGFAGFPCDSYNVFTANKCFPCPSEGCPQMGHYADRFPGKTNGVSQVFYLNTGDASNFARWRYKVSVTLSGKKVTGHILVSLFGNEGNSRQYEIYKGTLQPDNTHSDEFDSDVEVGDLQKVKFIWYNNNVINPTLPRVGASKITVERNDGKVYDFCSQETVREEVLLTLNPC

[4] = DPPH radical inhibition (antioxidant activity); assay type: biochemical; details: 60 μM DPPH, 30 minutes at 25° C., 540 nm
Protocol: The ascorbic acid (standard sample) was prepared for eight concentrations (0.5, 1, 2, 5, 10, 20, 50, and 200 μg/mL). The reaction mixture was stored in the dark at 25° C. for 30 minutes. The optical density was determined using a microplate reader (M200 PRO, Tecan, Austria). The mixture was measured spectrophotometrically using 540 nm. The antioxidant activity of each sample was expressed in terms of IC50 (micromolar concentration required to inhibit DPPH radical formation by 50%, calculated from the log-dose inhibition curve). Antioxidant activity was expressed in terms of IC50, and a lower IC50 value corresponds to a large inhibition. The radical scavenging activity was calculated using the following formula. DPPH radical scavenging activity (%)=[1(Asample/Ablank)]×100

ABTS radical inhibition = assay type: biochemical; details: 15 minutes at room temperature in the dark, 750 nm
Protocol: ABTS inhibition of the different extracts was measured according to the modified method of Park et al. ABTS stock solution was dissolved in water to 7.4 mM concentration. The ABTS radical cation (ABTS) was produced by reacting ABTS stock solution with 2.45 mM potassium persulfate and allowing the mixture to stand for 14 hours at room temperature in the dark. The ABTS solution was diluted with ethanol to obtain an absorbance of 0.70±0.02 at 750 nm. After adding diluted ABTS solution to PCM solution, the mixture was left standing at room temperature for 15 minutes in the dark. The ascorbic acid (standard sample) was prepared for eight concentrations (0.5, 1, 2, 5, 10, 20, 50, and 200 μg/mL). The absorbance at 750 nm was measured using a microplate reader (M200 PRO, Tecan, Austria). The blank was prepared in the same manner, except that distilled water was used instead of the sample. The radical scavenging activity was calculated using the following formula. ABTS radical scavenging activity (%)=[1(Asample/Ablank)]×100

[5] = Orlistat orally daily for 6 weeks

IC50 of DPPH inhibition [4] [µg/mL]	IC50 value against the ABTS (ABTS radical inhibition) [µg/mL]	Structure (SMILES)	Weight Amount of change [1, 5] [g/6 weeks]	Weight Final [1, 5] [g]	visceral fat weight compared with HFD control mice ([1]; Orlistat, 6 weeks)	LDL-cholesterol level ([2]; calculated from TG, TC, HDL)	TC level ([2]; serum)	TG level ([2]; serum)	prevention of absorption of dietary fat (pancreatic lipase enzyme)	side effects (pancreatic lipase enzyme)	lipase inhibition versus dose (FIG. 2) [3]
		CCCCCCCCCCC[C@@H](C[C@@H]1OC(=O)[C@H]1CCCCCC)OC(=O)[C@H](CC(C)C)NC=O [Orlistat]	8.21 ± 1.82	44.92 ± 1.62	significantly decreased	at the same level as normal food-supplied mice	at the same level as normal food-supplied mice	at the same level as normal food-supplied mice	approximately 30%	severe gastrointestinal side effects	did not rise at least a certain concentration
1.26 ± 0.02	2.27 ± 0.19 (≈ 12.9 µM)	O=C1O[C@H]([C@@H](O)CO)C(O)=C1O [ascorbic acid]									

From US10751379B2, “Method for preparing anti-obesity composition by using astringent persimmons and mandarin peels” (INDUSTRY ACADEMIC COORPERATION FOUNDATION DAEGU HAANY …, priority 2016, dated 2020)
